These results are taken from patent US20140303109A1 (priority 2010, published 2014).

Series [1] is described as follows: Tissue distribution after single intragastric dose. Type of series: in vivo, mice. The following applies: for concentration in the colon: 250 mg/kg oral; for preferential tissue distribution: 250 mg/kg single dose, liver, lung, kidney, heart, pancreas, colon. The protocol:
The mice were randomly divided into two groups of 18 mice apiece. […] Blood and tissue samples were harvested before initiation of treatment (0 hr) and at 1, 2, 4, 6, 8, 12, 16, and 24 hrs following the intragastric administration. At each time point, two mice were euthanized and ˜200 μL blood was collected by cardiac puncture, and tissues (liver, lung, kidney, heart, pancreas, and colon) were harvested, washed free of blood with PBS, blotted dry, weighed, and stored at −80° C. until analysis. The collected blood samples were allowed to clot, centrifuged, and then the serum was separated and stored at −80° C. until analysis.
The tissue samples were homogenized in 5 volumes of ice-cold normal saline. Aliquots of serum or tissue homogenate were spiked with ethyl acetate (containing 50 ng/ml zilueton as an internal standard) as follows: 100 μL serum/500 μL ethyl acetate and 500 μL tissue homogenate/1 ml ethyl acetate. The mixtures were vortex-mixed and centrifuged at 14,000 rpm for 5 minutes. The top layer was separated and dried under a stream of nitrogen in a water bath at about 50° C. The residue was reconstituted in 100 μL of methanol/water containing 0.45% formic acid (70:30 v/v) and then centrifuged again.
The supernatant (100 μL) was injected into the HPLC equipment, and separated on a Waters Xterra MS column (2.1×50 mm, […] i.d.) With a mobile phase consisting of methanol/water containing 0.45% formic acid (70:30 v/v) at a flow rate of 0.2 ml/min. The column effluent was monitored using a Waters Quattro Micro™ triple quadrapole mass-spectrometric detector equipped with an electrospray ionization source. (Waters Corporation, Milford, Mass.). […] The internal standard zilueton was monitored in the positive mode at the transition of m/z, 237.1→160.8. […] The within-day and between-day precision and accuracies of the assay was <15%.

For another series, the system named is miR-21. Kind of series: Real-time RT-PCR of miR-21 in PC cell lines. Type of series: cell-based, human. The following applies: 72 h; BxPC-3, MIAPaCa-E, MIAPaCa-M. On the procedure: The expression of miRNAs (miRNA-200a, miR-200b, and miR-21) in all three pancreatic cancer cell lines, was measured with a TaqMan MicroRNA Assay kit (Applied Biosystems, Carlsbad, Calif.) following the manufacturer's protocol. […] Total RNA was extracted, and 5 ng of each sample were reverse-transcribed in a method described by Li, et al., Cancer Res., Vol. 69, pages 6704-6712 (2009). Real-time RT-PCR reactions were then carried out in a total volume of 25 μl reaction mixture, as described by Li, et al., id., using Smart Cycler II (Cepheid, Sunnyvale, Calif.). The data were analyzed using Ct method and were normalized by RNU6B expression in each sample.
Background: Real-time PCR tracks product formation cycle by cycle.

Series [2] deals with NF-κB DNA binding activity. The series is described as follows: EMSA for NF-κB DNA binding activity, three PC lines. The series is classed as cell-based, human. The following applies: 72 h; CDF/CUR 1 or 4 μMol/L, GEM 10 nMol/L. The protocol: The DNA binding activity of the nuclear transcription factor, NF-κB was assessed in the BxPC-3, MIAPaCa-E, and MIAPaCa-M cell lines by EMSA. […] The cells were lysed in 400 μl of lysis buffer and the reaction was set up as described earlier in Ali, et al., id. The gel was scanned using an Odyssey Infrared Imaging System, (LI-COR, Inc., Lincoln, Nebr.). Equal protein loading was ensured by immunoblotting 10 μg of nuclear protein and probing with anti-retinoblastoma antibody.
For orientation: Mobility shift assays separate free from complexed probe on a gel.

In a further series the test system is miR-200b and miR-200c. Kind of series: Real-time RT-PCR of miR-200b and miR-200c in PC cell lines. The series is classed as cell-based, human. The following applies: 72 h; BxPC-3, MIAPaCa-E, MIAPaCaM. On the procedure: The expression of miRNAs (miRNA-200a, miR-200b, and miR-21) in all three pancreatic cancer cell lines, was measured with a TaqMan MicroRNA Assay kit (Applied Biosystems, Carlsbad, Calif.) following the manufacturer's protocol. […] Real-time RT-PCR reactions were then carried out in a total volume of 25 μl reaction mixture, as described by Li, et al., id., using Smart Cycler II (Cepheid, Sunnyvale, Calif.). The data were analyzed using Ct method and were normalized by RNU6B expression in each sample.

Series [3] has as its system pancreatospheres of AsPC-1 cells. The series is described as follows: Sphere formation assay. The series is classed as cell-based, human. As to conditions: AsPC-1, varying concentrations. The protocol: A sphere formation assay was conducted for 1 week (FIG. 19A) and four weeks (FIG. 19B) to examine the effect of the treating agents on the CSC self-renewal capacity of the PC cell line AsPC-1. […] Therefore, it appears that CDF may cause pancreatospheres to be more sensitive to GEM, and as a result, CDF, or the combination of CDF/GEM, would be useful for targeted killing of CSCs.
Furthermore, pretreatment with CDF improved the outcome.

Another series relates to MIAPaCa-2 tumors. The series is described as follows: MIAPaCa-2 subcutaneous xenograft tumor model. Type of series: in vivo, mice. As to conditions: CDF or CUR 5 mg/mouse/day intragastric 12 days; GEM 1 mg/mouse i.v. x3. On the procedure: Female CB17 SCID mice 4 wks old were purchased from Taconic Farms (Germantown, N.Y.). Small fragments of the MIAPaCa-2 xenograft were implanted subcutaneously and bilaterally into mice. […] Tumor measurements and changes in weight were performed and tissue was stored at −70° C. for RNA and protein extraction.

In series [4] the test system is miR-21, miR-200b, miR-200c. Kind of series: RT-PCR of miR-21, miR-200b, miR-200c in MIAPaCa-2 tumors. Type of series: in vivo, mice. On the procedure: Therefore, the expression of miRNAs (miRNA-200b, miR-200c, and miR-21) in MIAPaCa-2 tumors, was assessed with a TaqMan MicroRNA Assay kit (Applied Biosystems, Carlsbad, Calif.) following the manufacturer's protocol. 5 ng of total RNA was reverse transcribed and real-time PCR reactions were carried as previously described.

Series [5] has as its system pancreatosphere-derived tumor cells. The series is described as follows: Pancreatosphere formation by pancreatosphere-derived tumor cells. The series is classed as cell-based. The following applies: cells harvested from pancreatosphere-derived tumors. From the text: Pancreatospheres (5,000) derived from MIAPaCa-2 cells were isolated and implanted in mice with 1:1 matrigel. […] RNA was extracted from the tumor tissue and assayed.
The animal was euthanized after 30 days because of tumor burden and photographed.

In series [6] the test system is 5-FU+Ox-resistant cancer cells. The following applies: alone or with 5-FU+Ox or FOLFOX; cited from earlier work.
The conditions of series [7]: oral 1 g/kg body wt., mouse; cited from earlier work.

As for `COc1cc(/C=C/C(=O)C(=Cc2ccc(F)c(F)c2)C(=O)/C=C/c2ccc(O)c(OC)c2)ccc1O` [CDF, (1E,6E)-1,7-bis(4-hydroxy-3-methoxyphenyl)hepta-1,6-diene{4(3,4 difluorobenzaldehyde)}-3,5-dione], in [1], the “concentration in the colon” value is given as “detectable at high concentrations in the colon” and the preferential tissue distribution result is on record as “accumulated preferentially in the pancreas”. Further, the “expression of miR-21” value in the series on miR-21 is “significant reduction in the expression of miR-21”. In addition, the “NF-κβ DNA binding activity” value in series [2] is “significant inhibition in the DNA binding activity of NF-κβ in all three cell lines”. In addition, the “expression of miR-200b and miR-200c” value in the series with miR-200b and miR-200c is listed as “much more pronounced”. Moreover, in series [3], the “2nd passage of pancreatospheres” value is “inhibited 2nd passage of pancreatospheres in a dose-dependent manner”. Moreover, the tumor growth entry in the series on MIAPaCa-2 tumors was “significantly inhibited tumor growth”. Moreover, in [4], the “expression of MiR-21 in tumors” value is on record as “significant reduction in the expression of MiR-21”; the “expression of miR-200b and miR-200c in tumors” value was “increased expression of both miR-200b, and miR-200c”. Further, in series [5], the “formation of new pancreatospheres” value is recorded as “significant inhibition in the formation of new pancreatospheres”. In addition, the “reducing and/or reversing chemoresistant colon cancer cells” value in series [6] is reported as “superior to naturally-occurring CUR”.
Turning to `COc1cc(/C=C/C(=O)CC(=O)/C=C/c2ccc(O)c(OC)c2)ccc1O` [CUR, (1E,6E)-1,7-bis(4-hydroxy-3-methoxyphenyl)hepta-1,6-diene-3,5-dione, reference compound], in series [1], the “concentration in the colon” value is “detectable at high concentrations in the colon”; the preferential tissue distribution entry was “present mainly in heart and lung tissue”. Further, in [2], the “NF-κβ DNA binding activity” value is “much lower effects on NF-κβ DNA binding activity than the CDF-treated cells”. In the series with miR-200b and miR-200c, the “expression of miR-200b and miR-200c” value is “increased expression of miR-200b and miR-200c”. Moreover, the “expression of miR-200b and miR-200c in tumors” value in [4] was “minimal”. The Cmax (in general, the highest concentration seen after dosing) in series [7] is 220 ng/mL.
